The values that follow come from patent publication US20250144253A1, “3-((3-([1,1'-BIPHENYL]-3-YLMETHOXY)PHENOXY)METHYL)BENZONITRILE DERIVATIVES AND THE USE THEREOF” (HELMHOLTZ-ZENTRUM DRESDEN-ROSSENDORF E.V., priority 2021, published 2025).

Converted amounts (≈) assume the structure as drawn.

The nature of data set [1]: Water solubility by adding water in 1 μl steps to 1 mg compound. In kind it is physicochemical. To be noted: thermodynamic from solid. On the procedure:
The water solubility of compounds 85-90 was determined by weighing 1 mg of the cold compound in an Eppendorf-tube and adding water in 1 μl steps. The addition was performed until everything was dissolved. The value in mg/μl was converted to […].

Data set [2] can be described thus: Distribution coefficient log D at pH 7.4. In kind it is physicochemical. To be noted: pH 7.4, n = 3. The source says:
In general, the more negative the values of log D the better the water solubility.

Data set [3] concerns the target T1, PD-L1 (Homo sapiens, UniProt Q9NZQ7).
T1 construct: expressed in transfected cells; host or cells: PC3 hPSCA PD-L1 overexpressing cell line
Nature of the data set: Saturation binding assay of Cu-64 labelled radioligands on PC3 hPSCA PD-L1 overexpressing cell line. Particulars: PC3 hPSCA PD-L1 cells, n = 3; for Kd: 4° C., 90 min. Here is the method: Experiments were performed on a PC3 hPSCA PD-L1 overexpressing cell line in triplicates and three experiments were performed per compound, resulting in a 3×3 data set per compound (see FIGS. 1 to 3). The saturated, upper curve represents the total binding of the compound whereas the lower, linear curve represents the unspecific binding. The specific binding is represented as the difference between total and unspecific binding.
In the following the procedure for saturation binding assay is explained: The respective Cu-64 labeled compound is prepared freshly for each experiment. The cells with PD-L1 expression were prepared in 48-well plates. Three rows in the plates were designated for determination of total binding and one row for determination of the unspecific binding. For the latter, the cells are pretreated for 15 min with a 300 fold excess of a literature known PD-L1 inhibitor with high binding to PD-L1. […] Protein determination takes place at the next day and provides the Bmax value (total density of PD-L1 receptors on cell surface). Plotting and graphical interpretation provides curves and Kd-values from graph fitting.

Data set [4] relates to PD-L1 tumor. As to the kind of experiment: PET imaging in PD-L1 overexpressing mouse xenograft model. Particulars: 5 hrs p.i. (second image). The class given is in vivo.
Data set [5] has as its system PD-L1 tumor. The data set is described as above. In kind it is in vivo. Here is the method: Compound 119 was tested in a PD-L1 overexpressing mouse xenograft model. PET images were recorded 2 h, 15 h and 24 h post injection (see FIG. 4). The experiments were performed with compound 119 in duplicates (two mice for each timepoint). About 10 MBq of radiolabelled compound were injected intravenously in the tail vain of an alive mouse. At 2 hrs p.i. the first image was recorded. […] At 5 hrs p.i. the second image was recorded. High uptake in liver; high uptake in colon and intestine and increased uptake in PD-L1 tumor have been observed. At 24 hrs p.i. the third image was recorded. Moderate uptake in liver, low uptake in intestine and moderate uptake in the PD-L1 positive tumor has been observed.

T1 sequence (Q9NZQ7 19-290): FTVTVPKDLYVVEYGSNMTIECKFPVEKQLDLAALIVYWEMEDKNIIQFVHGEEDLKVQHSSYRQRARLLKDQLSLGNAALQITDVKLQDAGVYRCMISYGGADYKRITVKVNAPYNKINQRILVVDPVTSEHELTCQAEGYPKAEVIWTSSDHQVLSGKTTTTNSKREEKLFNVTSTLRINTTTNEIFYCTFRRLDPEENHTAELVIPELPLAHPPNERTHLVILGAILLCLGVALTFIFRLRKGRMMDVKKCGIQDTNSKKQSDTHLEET

Broadly, the solubility is the concentration that dissolves in the medium under given conditions. Read a high solubility as a readily soluble substance. In turn, `Cc1c(COc2cc(OCc3cncc(S(C)(=O)=O)c3)c(CN(C)CC(=O)NCC(S(=O)(=O)O)S(=O)(=O)O)cc2Cl)cccc1-c1cccc(OCc2cn([C@@H]3O[C@H](CO)[C@@H](O)[C@H](O)[C@H]3F)nn2)c1C` [Compound 89, 2-(2-((5-Chloro-4-((3′-((1-((2R,3R,4S,5S,6R)-3-fluoro-4,5-dihydroxy-6-(hydroxymethyl)tetrahydro-2H-pyran-2-yl)-1H-1,2,3-triazol-4-yl)methoxy)-2,2′-dimethyl-[1,1′-biphenyl]-3-yl)methoxy)-2-((5-(methylsulfonyl)pyridin-3-yl)methoxy)benzyl)(methyl)amino)acetamido)ethane-1,1-disulfonic acid] gave a solubility in data set [1] of 120 mg/mL (≈ 113 mM).
As a reminder, the Kd is the free concentration of one partner at which half of the binding sites on the other are occupied at equilibrium, for simple one-to-one binding. A high value points to lower affinity. Take `Cc1c(COc2cc(OCc3cncc(C#N)c3)c(CN(C)CC(=O)NCC(S(=O)(=O)O)S(=O)(=O)O)cc2Br)cccc1-c1cccc(OCc2cn(CCCN3CCN(C(=O)CN4CCN(CC(=O)O)CCN(CC(=O)O)CCN(CC(=O)O)CC4)CC3)nn2)c1C` [Compound 122]: the “Log D7.4” value in data set [2] was −3.48 ± 0.03. In addition, in data set [3], the Kd came to 135 ± 2.34 nM and the “Bmax (receptor density)” value is given as 8.28 ± 0.13 pmol/mg.
As for `CN(CC(=O)NCC(S(=O)(=O)O)S(=O)(=O)O)Cc1cc(Cl)c(OCc2cccc(-c3cccc(OCc4cn([C@@H]5O[C@H](CF)[C@@H](O)[C@H](O)[C@H]5O)nn4)c3)c2Br)cc1OCc1cncc(S(C)(=O)=O)c1` [Compound 87, 2-(2-((4-((2-Bromo-3′-((1-((2R,3R,4S,5S,6S)-6-(fluoromethyl)-3,4,5-trihydroxytetrahydro-2H-pyran-2-yl)-1H-1,2,3-triazol-4-yl)methoxy)-[1,1′-biphenyl]-3-yl)methoxy)-5-chloro-2-((5-(methylsulfonyl)pyridin-3-yl)methoxy)benzyl)(methyl)amino)acetamido)ethane-1,1-disulfonic acid], the concentration in solution in data set [1] (solubility) was 115 mg/mL (≈ 104 mM).
For `Cc1c(COc2cc(OCc3cncc(C#N)c3)c(CN(C)CC(=O)NCC(S(=O)(=O)O)S(=O)(=O)O)cc2Cl)cccc1-c1cccc(OCc2cn(CCCN3CCN(C(=O)CN4CCN(CC(=O)O)CCN(CC(=O)O)CCN(CC(=O)O)CC4)CC3)nn2)c1C` [Compound 121], in data set [2], the “Log D7.4” value is recorded as −2.99 ± 0.02. In data set [3], the Kd was 128 ± 13.2 nM and the “Bmax (receptor density)” value came out at 20.9 ± 2.17 pmol/mg.
`CN(CC(=O)NCC(S(=O)(=O)O)S(=O)(=O)O)Cc1cc(Cl)c(OCc2cccc(-c3cccc(OCc4cn(CCCF)nn4)c3)c2Br)cc1OCc1cncc(S(C)(=O)=O)c1` [Compound 85, 2-(2-((4-((2-Bromo-3′-((1-(3-fluoropropyl)-1H-1,2,3-triazol-4-yl)methoxy)-[1,1′-biphenyl]-3-yl)methoxy)-5-chloro-2-((5-(methylsulfonyl)pyridin-3-yl)methoxy)benzyl)(methyl)amino)acetamido)ethane-1,1-disulfonic acid] came in with a solubility in data set [1] of 80 mg/mL (≈ 79.7 mM).
`CN(CC(=O)NCC(S(=O)(=O)O)S(=O)(=O)O)Cc1cc(Cl)c(OCc2cccc(-c3cccc(OCc4cn(CCCC5CCN(C(=O)CN6CCN(CC(=O)O)CCN(CC(=O)O)CCN(CC(=O)O)CC6)CC5)nn4)c3)c2Br)cc1OCc1cncc(S(C)(=O)=O)c1` [Compound 115]: the “Log D7.4” value in data set [2] is −2.73 ± 0.04. Further, in data set [3], the dissociation constant Kd is 585 ± 39.6 nM and the “Bmax (receptor density)” value stood at 11.7 ± 0.54 pmol/mg.
`Cc1c(COc2cc(OCc3cncc(S(C)(=O)=O)c3)c(CN(C)CC(=O)NCC(S(=O)(=O)O)S(=O)(=O)O)cc2Cl)cccc1-c1cccc(OCc2cn(CCCN3CCN(C(=O)CN4CCN(CC(=O)O)CCN(CC(=O)O)CCN(CC(=O)O)CC4)CC3)nn2)c1C` [Compound 119]: in data set [4], the “uptake in PD-L1 tumor” value was “increased”; the “uptake in colon and intestine” value is reported as “high”; the uptake in liver result is listed as “High”. Moreover, the “Log D7.4” value in data set [2] is −3.14 ± 0.02. Besides, in data set [5] (2 hrs p.i.), the “circulation in the blood pool” value is on record as “did still circulate in the blood pool”; the “uptake in PD-L1 tumor” value is reported as “low”; the “uptake in bladder and intestines” value was “high”. Besides, the uptake in liver entry in data set [5] (2 hrs p.i., about 10 MBq i.v.) was “Moderate”. For the same compound, in data set [5] (24 hrs p.i.), the uptake in intestine result is listed as “low”, the uptake in liver result was “Moderate” and the “uptake in the PD-L1 positive tumor” value is “moderate”. Further, in data set [3], the Kd is 59.9 ± 4.63 nM and the “Bmax (receptor density)” value is listed as 5.43 ± 0.46 pmol/mg.
`Cc1c(COc2cc(OCc3cncc(S(C)(=O)=O)c3)c(CN(C)CC(=O)NCC(S(=O)(=O)O)S(=O)(=O)O)cc2Cl)cccc1-c1cccc(OCc2cn(CCCF)nn2)c1C` [Compound 88, 2-(2-((5-Chloro-4-((3′-((1-(3-fluoropropyl)-1H-1,2,3-triazol-4-yl)methoxy)-2,2′-dimethyl-[1,1′-biphenyl]-3-yl)methoxy)-2-((5-(methylsulfonyl)pyridin-3-yl)methoxy)benzyl)(methyl)amino)acetamido)ethane-1,1-disulfonic acid] came in with a solubility in data set [1] of 85 mg/mL (≈ 89.1 mM).
As for `Cc1c(COc2cc(OCc3cncc(C#N)c3)c(CN(C)CC(=O)NCC(S(=O)(=O)O)S(=O)(=O)O)cc2I)cccc1-c1cccc(OCc2cn(CCCN3CCN(C(=O)CN4CCN(CC(=O)O)CCN(CC(=O)O)CCN(CC(=O)O)CC4)CC3)nn2)c1C` [Compound 123], in data set [2], the “Log D7.4” value is listed as −2.89 ± 0.02. Also, in data set [3], the Kd was determined as 300 ± 20.6 nM and the “Bmax (receptor density)” value was 49.6 ± 1.27 pmol/mg.
As to `CN(CC(=O)NCC(S(=O)(=O)O)S(=O)(=O)O)Cc1cc(Cl)c(OCc2cccc(-c3cccc(OCc4cn(CCOCCOCCN5CCN(C(=O)CN6CCN(CC(=O)O)CCN(CC(=O)O)CCN(CC(=O)O)CC6)CC5)nn4)c3)c2Br)cc1OCc1cncc(S(C)(=O)=O)c1` [Compound 117], the “Log D7.4” value in data set [2] is −3.47 ± 0.10. For the same compound, in data set [3], the Kd is 357 ± 66.5 nM and the “Bmax (receptor density)” value is listed as 5.85 ± 1.14 (n = 6) pmol/mg.
Take `Cc1c(COc2cc(OCc3cncc(S(C)(=O)=O)c3)c(CN(C)CC(=O)NCC(S(=O)(=O)O)S(=O)(=O)O)cc2Cl)cccc1-c1cccc(OCc2cn([C@@H]3O[C@H](CF)[C@@H](O)[C@H](O)[C@H]3O)nn2)c1C` [Compound 90, 2-(2-((5-Chloro-4-((3′-((1-((2R,3R,4S,5S,6S)-6-(fluoromethyl)-3,4,5-trihydroxytetrahydro-2H-pyran-2-yl)-1H-1,2,3-triazol-4-yl)methoxy)-2,2′-dimethyl-[1,1′-biphenyl]-3-yl)methoxy)-2-((5-(methylsulfonyl)pyridin-3-yl)methoxy)benzyl)(methyl)amino)acetamido)ethane-1,1-disulfonic acid]: the solubility in data set [1] was 115 mg/mL (≈ 109 mM).
For the compound `Cc1c(COc2cc(OCc3cncc(S(C)(=O)=O)c3)c(CN(C)CC(=O)NCC(S(=O)(=O)O)S(=O)(=O)O)cc2Cl)cccc1-c1cccc(OCc2cn(CCCC3CCN(C(=O)CN4CCN(CC(=O)O)CCN(CC(=O)O)CCN(CC(=O)O)CC4)CC3)nn2)c1C` [Compound 118], in data set [2], the “Log D7.4” value is given as −2.75 ± 0.04. In addition, in data set [3], the Kd worked out at 123 ± 11.7 nM and the “Bmax (receptor density)” value is given as 13.5 ± 0.98 pmol/mg.
Turning to `Cc1c(COc2cc(OCc3cncc(S(C)(=O)=O)c3)c(CN[C@@H](CS(=O)(=O)O)C(=O)NCCS(=O)(=O)O)cc2Cl)cccc1-c1cccc(OCc2cn(CCCN3CCN(C(=O)[C@H](CS(=O)(=O)O)NC(=O)CC[C@H](C(=O)O)N4CCN(CC(=O)O)CCN(CC(=O)O)CC4)CC3)nn2)c1C` [Compound 222], the “Log D7.4” value in data set [2] is −3.80 ± 0.02.
In data set [1], `CN(CC(=O)NCC(S(=O)(=O)O)S(=O)(=O)O)Cc1cc(Cl)c(OCc2cccc(-c3cccc(OCc4cn([C@@H]5O[C@H](CO)[C@@H](O)[C@H](O)[C@H]5F)nn4)c3)c2Br)cc1OCc1cncc(S(C)(=O)=O)c1` [Compound 86, 2-(2-((4-((2-Bromo-3′-((1-((2R,3R,4S,5S,6R)-3-fluoro-4,5-dihydroxy-6-(hydroxymethyl)tetrahydro-2H-pyran-2-yl)-1H-1,2,3-triazol-4-yl)methoxy)-[1,1′-biphenyl]-3-yl)methoxy)-5-chloro-2-((5-(methylsulfonyl)pyridin-3-yl)methoxy)benzyl)(methyl)amino)acetamido)ethane-1,1-disulfonic acid] showed a solubility of 110 mg/mL (≈ 99.2 mM).
Regarding `Cc1c(COc2cc(OCc3cncc(S(C)(=O)=O)c3)c(CN(C)CC(=O)NCC(S(=O)(=O)O)S(=O)(=O)O)cc2Cl)cccc1-c1cccc(OCc2cn(CCOCCOCCN3CCN(C(=O)CN4CCN(CC(=O)O)CCN(CC(=O)O)CCN(CC(=O)O)CC4)CC3)nn2)c1C` [Compound 120], the “Log D7.4” value in data set [2] was −3.50 ± 0.01. In data set [3], binding was put at a Kd of 71.3 ± 10.1 nM and the “Bmax (receptor density)” value is reported as 7.04 ± 0.42 pmol/mg.
